Patent US20220073496A1, “NOVEL QUINOLINE DERIVATIVE INHIBITOR” (Nanjing Transthera Biosciences Co., Ltd., priority 2018, published 2022)
pIC50: −log10 of the molar value.

Experiments:
[1] = Stability in liver microsome of dogs; format: in vitro ADME; details: liver microsomes; Dog liver microsome 0.5 mg protein/mL, compound 1 μM, 37° C.
Procedure: (§1) Assay 1: Stability assessment of the compounds of the present invention in liver microsome of mice and dogs
(§2) Test substances: the compounds of the present invention, wherein the structures and preparations thereof were as described above.
(§3) The composition of the incubation system:
(§4) Preparation of Test Substances:
(§5) An appropriate amount of the compound was accurately weighed and dissolved in DMSO to prepare a 5.0 mM stock solution. The 5.0 mM stock solution was diluted to 1.0 mM with DMSO, and finally diluted with water to a 10 μM test substance working solution for use (the DMSO content in the reaction system was 0.1%).
(§6) (1) The liver microsome (20 mg protein/mL) was taken out from the −80° C. refrigerator, pre-incubated at 37° C. with a water-bathing constant temperature vibrator for 3 minutes, and melted for use.
(§7) (2) A mixed solution of the incubation system (excluding compounds and β-NADPH) according to the above “composition of the incubation system” for the assay was prepared, and pre-incubated at 37° C. with a water-bathing constant temperature vibrator for 2 minutes.
(§8) (3) Control group (excluding β-NADPH): 30 μL of water and 30 μL of compound working solution (10 μM) were added to 240 μL of the mixed solution of the incubation system of step (2), and vortexed for 30 seconds to mix well. The total reaction volume was 300 μL. A duplicate sample was prepared. The sample was incubated at 37° C. with a water-bathing constant temperature vibrator. The timekeeping began and the sampling time points were set at 0 minute and 60 minutes.
(§9) (4) Sample group: 70 μL of β-NADPH solution (10 mM) and 70 μL of compound working solution (10 μM) were added to 560 μL of the mixed solution of step (2). The total reaction volume was 700 μL. The resulting mixture was vortexed for 30 seconds to mix well. A duplicate sample was prepared. The sample was incubated at 37° C. with a water-bathing constant temperature vibrator. The timekeeping began and the sampling time points were set at 0 minute, 5 minutes, 10 minutes, 20 minutes, 30 minutes, and 60 minutes after timekeeping.
(§10) (5) After vortexing for 3 minutes, the sample was centrifuged at 4000 rpm for 10 minutes.
(§11) (6) 50 μL of the supernatant was taken and 150 μL of water was added. The resulting mixture was vortexed to mix well, and analyzed by LC/MS/MS.
(§12) The half-life (t1/2) and clearance rate (Cl) were calculated using the following first-order kinetic formula:
(§13) Vd=1/protein content in liver microsome
(§14) Note: k was the slope of the logarithm of the remaining amount of the compound versus time, and Vd was the apparent distribution volume.

H1299 cell pAxl = target: T1, H1299 cell pAxl (Homo sapiens, UniProt P30530); assay: Inhibitory activity on the cell pAxl (Western Blot); format: cell-based; details: H1299 cells, compound 1.1, 3.3, 10, 30 nM, hGAS6 200 ng/mL
T1 construct: endogenous in cells; host or cells: H1299
T1 sequence (P30530 26-894): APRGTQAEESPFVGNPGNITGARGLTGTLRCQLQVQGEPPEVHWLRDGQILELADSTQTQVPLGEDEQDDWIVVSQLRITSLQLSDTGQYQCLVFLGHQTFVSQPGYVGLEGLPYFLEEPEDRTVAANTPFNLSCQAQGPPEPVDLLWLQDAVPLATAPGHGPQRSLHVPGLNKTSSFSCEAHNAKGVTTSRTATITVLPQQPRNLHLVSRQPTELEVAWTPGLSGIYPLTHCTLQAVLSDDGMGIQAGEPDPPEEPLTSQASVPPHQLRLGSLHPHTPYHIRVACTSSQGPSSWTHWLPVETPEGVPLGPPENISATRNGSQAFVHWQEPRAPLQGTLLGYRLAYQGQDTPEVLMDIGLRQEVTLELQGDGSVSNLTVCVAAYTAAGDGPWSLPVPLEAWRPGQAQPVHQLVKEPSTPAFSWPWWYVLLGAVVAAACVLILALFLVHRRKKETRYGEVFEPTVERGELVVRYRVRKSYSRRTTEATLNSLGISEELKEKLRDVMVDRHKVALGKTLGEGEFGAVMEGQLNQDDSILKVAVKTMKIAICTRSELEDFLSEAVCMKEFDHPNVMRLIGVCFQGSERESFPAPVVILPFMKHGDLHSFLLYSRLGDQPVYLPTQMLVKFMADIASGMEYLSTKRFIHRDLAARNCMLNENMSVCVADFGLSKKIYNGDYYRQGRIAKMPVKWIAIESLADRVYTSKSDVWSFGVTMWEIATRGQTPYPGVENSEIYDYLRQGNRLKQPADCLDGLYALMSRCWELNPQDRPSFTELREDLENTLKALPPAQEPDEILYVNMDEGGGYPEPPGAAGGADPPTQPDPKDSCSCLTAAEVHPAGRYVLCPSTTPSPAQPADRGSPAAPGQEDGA
Procedure: Assay 5: Test for Inhibitory Activities of the Compounds of the Present Invention on the Cell pAxl
H1299 is a non-small cell lung cancer cell.
Test substances: the compounds of the present invention, wherein the structures thereof were as described above.
Test equipment: protein electrophoresis apparatus (manufactured by Bio Rad), transfer unit (manufactured by Bio Rad), exposure unit (manufactured by Tanon), CO2, cell incubator (manufactured by Thermo).
The H1299 cells were inoculated in a 6-well plate (containing 10% FBS 1640 medium, 5×10^5 cells per well), and adherent cells were cultivated at 37° C. in a 5% CO2 condition for 18 hours. The cells were starved overnight. Different concentrations of compounds were added. The final compound concentrations were 1.1, 3.3, 10, and 30 nM, and the final DMSO content was 1‰. The negative control wells contained the medium containing 1‰ DMSO. After incubating at 37° C. in a 5% CO2 condition for 60 minutes, hGAS6 (R&D, final concentration 200 ng/mL) was added to each well. After further incubating for 60 minutes, the cell total protein was extracted for Western Blot and the […] values were calculated using GraphPad 5.0 software. The inhibitory activity of the compound on the cell pAxl was examined.

[2] = Stability in liver microsome of mice; format: in vitro ADME; details: liver microsomes; Mouse liver microsome 0.5 mg protein/mL, compound 1 μM, 37° C.
Procedure: as §1, §2, §3, §4, §5, §6, §7, §8, §9, §10, §11, §12, §13, §14

half-life at 1 μM [1]: 3.73 h
microsomal CLint at 1 μM [1]: 6.2 µL/min/mg
pIC50 (H1299 cell pAxl): 8.00 to 8.48
half-life at 1 μM [2]: 2.13 h
microsomal CLint at 1 μM [2]: 10.8 µL/min/mg
Structure (SMILES): COc1cc2nccc(Oc3ncc(NC(=O)c4cn(C5CC5)nc(-c5ccc(F)cc5)c4=O)cn3)c2cc1OC [Compound 44, 2-cyclopropyl-N-(2-((6,7-dimethoxyquinolin-4-yl)oxy)pyrimidine-5-yl)-6-para-fluorophenyl-5-oxo-2,5-dihydropyridazine-4-carboxamide]
